{
  "source": "paper PMC10983001",
  "about": "“Development of Cytotoxic GW7604-Zeise’s Salt Conjugates as Multitarget Compounds with Selectivity for Estrogen Receptor- Positive Tumor Cells” (Journal of Medicinal Chemistry, 2024)",
  "key": {"MCF-7 cells [1]": {"tested_on": "MCF-7 cells", "assay": "Hormonal (agonistic) activity: growth stimulation", "assay_type": "cell-based, human", "settings": "MCF-7, low concentrations (<100 nM), data not shown", "from_the_text": "However, both agonistic properties and SERD effects can be excluded."}, "MCF-7 cells [2]": {"tested_on": "MCF-7 cells", "assay": "Comet assay", "assay_type": "cell-based, human", "settings": "MCF-7, 20 μM, 48 h", "description": "The comet assay (Figure 10), however, documents different consequences of DNA binding. […] The picture (Figure 10C) is very similar to that of the solvent control (Figure 10A).\nMCF-7 cells were seeded at a density of 1.0 × 10^6 cells into a 25 cm^2 flask, followed by 24 h of incubation in a humidified atmosphere (5% CO2/95% air) at 37 °C. […] Cells were incubated with the compounds for 48 h. The assay was performed according to the manufacturer’s protocol (Comet assay kit, Abcam, Cambridge, UK). Briefly, after lysis and application to the microscopy slides, electrophoresis was run in an alkaline buffer for 20 min at 2 V/cm. Subsequently, slides were washed with pure deionized water and EtOH/water [7/3 (v/v)], and stained with Vista Green DNA Dye. Visualization was carried out by real-time live confocal microscopy using an inverted microscope (Zeiss Observer Z1) in arrangement with a spinning disc confocal system (UltraVIEW VoX)."}, "[3]": {"target": "T1, ERβ ligand-binding domain (Homo sapiens, UniProt Q92731)", "T1 construct": "purchased Invitrogen", "T1 sequence (Q92731 264-498 limits assumed)": "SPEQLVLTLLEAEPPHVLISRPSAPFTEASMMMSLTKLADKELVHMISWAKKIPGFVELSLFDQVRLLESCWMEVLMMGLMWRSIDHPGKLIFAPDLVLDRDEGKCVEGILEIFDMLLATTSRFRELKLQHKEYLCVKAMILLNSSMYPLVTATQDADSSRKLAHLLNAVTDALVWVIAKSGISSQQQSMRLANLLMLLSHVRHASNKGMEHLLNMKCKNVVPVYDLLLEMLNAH", "assay": "TR-FRET ligand binding assay, isolated LBD of ERβ", "description": "(§1) A modified LanthaScreen TR-FRET alpha/beta assay was performed, according to the manufacturer’s protocol (Invitrogen, Carlsbad, […]), to determine the binding affinity to the isolated LBD. […] Measurements were carried out on a multimode plate reader, Tecan Spark (Tecan, Männedorf, Switzerland). Calculations and visualization were performed with GraphPad Prism 8.0 (GraphPad Software, San Diego, CA, USA)."}, "SKBr3 cells": {"tested_on": "SKBr3 cells", "assay": "MTT assay of metabolic activity, SKBr3", "assay_type": "cell-based, human", "settings": "72 h, MTT", "description": "(§2) The GW7604-Alk-PtCl3 complexes (with exclusion of GW7604-Prop-PtCl3) were investigated for cytotoxic effects in SKBr3 (ER-negative, COX-2-positive, Figure 6), MCF-7 (ERα-positive, COX-negative, Figure 6), and noncancerous TSA-201 (human embryonal kidney) cells at concentrations of 10–30 μM using an established MTT (3-(4,5-dimethylthiazol-2-yl)-2,5-diphenyltetrazolium bromide) assay.[60],[69]\n(§3) After incubation for 72 h, the amounts of surviving, metabolically active cells were quantified based on their ability to transform the water-soluble yellow dye MTT to a purple formazan, which can be analyzed by UV–vis spectroscopy.\n(§4) The exponentially growing cells were seeded at a density of 1750 (MCF-7), 2000 (SKBr3), and 1250 (TSA-201) cells/well into clear flat-bottom 96-well plates in triplicate. Following 24 h of incubation at 37 °C in a humidified atmosphere (5% CO2/95% air), the compounds [freshly prepared stock solutions in DMF, diluted with DMEM to the desired concentration (final DMF concentration of 0.1% (v/v))] were added to reach the indicated concentrations. After another 72 h of incubation, the cellular metabolic activity was measured employing an MTT assay. By adding predissolved MTT reagent in PBS at a final concentration of 0.5 mg/mL, the metabolic activity can be determined via an enzymatic conversion to a purple formazan salt. After 3 h, the medium was aspirated, and 200 μL of DMSO was added to dissolve the formed formazan crystals. The absorbance was measured at 570 and 690 nm (turbidity assessment) using an EnSpire plate reader (PerkinElmer, Waltham, MA, USA). Solvent-treated cells without a compound served as the positive control. Metabolic activity was calculated by the following equation [drawing 1]"}, "[4]": {"tested_on": "5′-guanosine monophosphate (5′-GMP)", "assay": "Reaction with 5′-GMP (ESI-HR-MS)", "assay_type": "binding", "settings": "100 μM, MeOH/water 80/20, 5 min", "description": "Thereto, GW7604-Pent-PtCl3 was incubated in a 1:1 ratio with 5′-GMP in a MeOH/water mixture [80/20, (v/v)], and the reaction products were identified by ESI-HR-MS after 5 min and 24 h.\nGW7604-Pent-PtCl3 dissolved in MeOH was combined with an aqueous solution of 5′-GMP (disodium salt) to get an [80/20 (v/v)] solution with a complex concentration of 1 mM and a complex/5′-GMP proportion of 1/1.1. The mixture was diluted %1/10 (v/v)] with MeOH/water [80/20 (v/v)], reaching a final complex concentration of 100 μM, and ESI-HR-MS spectra were recorded after 5 min and 24 h. The obtained spectra were analyzed with MestreNova v14."}, "[5]": {"target": "T2, ERα ligand-binding domain (Homo sapiens, UniProt P03372)", "T2 construct": "purchased Invitrogen", "T2 sequence (P03372 311-547 limits assumed)": "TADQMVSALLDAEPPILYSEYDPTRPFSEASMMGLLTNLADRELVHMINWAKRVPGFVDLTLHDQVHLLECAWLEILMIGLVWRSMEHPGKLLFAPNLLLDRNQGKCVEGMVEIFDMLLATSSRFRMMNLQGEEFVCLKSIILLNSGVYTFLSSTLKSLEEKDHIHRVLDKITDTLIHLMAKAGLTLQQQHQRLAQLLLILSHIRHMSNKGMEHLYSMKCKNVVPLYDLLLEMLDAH", "assay": "TR-FRET ligand binding assay, isolated LBD of ERα", "description": "as §1"}, "TSA-201 cells": {"tested_on": "TSA-201 cells", "assay": "MTT assay of metabolic activity, noncancerous TSA-201", "assay_type": "cell-based, human", "settings": "72 h", "description": "as §2, §3, §4"}},
  "data": [
    {"smiles": "CCC(=C(c1ccc(O)cc1)c1ccc(C=CC(=O)OCCC[CH]2[CH2][Pt-]2([Cl])([Cl])[Cl])cc1)c1ccccc1.[K+]", "note": "(mixture of isomers) [GW7604-Pent-PtCl3, Potassium trichlorido[η^2-(pent-4-en-1-yl (E)-3-(4-((E/Z)-1-(4-hydroxyphenyl)-2-phenylbut-1-en-1-yl)phenyl)acrylate)]platinate(II)]", "values": [
      {"measurement": "agonistic effect: stimulation of growth", "setting": "MCF-7 cells [1]", "value": "neither stimulated the growth"},
      {"measurement": "comet tails (DNA cross-links)", "setting": "MCF-7 cells [2]", "value": "did not show this effect"},
      {"measurement": "RBA (ERβ)", "setting": "[3]; RBA(E2) = 100%", "value": 6.02, "unit": "%"},
      {"measurement": "IC50", "setting": "[3]; read-out: IC50 (ERβ), displacement from the LBS", "value": 3.99, "unit": "nM"},
      {"measurement": "IC50", "setting": "SKBr3 cells", "value": "> 30000", "unit": "nM"},
      {"measurement": "adduct formation with 5′-GMP", "setting": "[4]", "value": "5′-GMP-platinum adducts were present"},
      {"measurement": "RBA (ERα)", "setting": "[5]; RBA(E2) = 100%", "value": 7.29, "unit": "%"},
      {"measurement": "IC50", "setting": "[5]; read-out: IC50 (ERα), displacement from the LBS", "value": 4.81, "unit": "nM"},
      {"measurement": "IC50", "setting": "TSA-201 cells; MTT, read-out: IC50 TSA-210", "value": "> 30000", "unit": "nM"},
      {"measurement": "decrease of cell viability", "setting": "TSA-201 cells; TSA-201, 30 μM", "value": "about 20%"}
    ]}
  ]
}
